Measurements taken from patent publication US20120058099A1, “USE OF HYPOXANTHINE FOR PROMOTION OF NEURONAL OUTGROWTH” (CHILDREN'S MEDICAL CENTER CORPORATION, priority 2009, published 2012).
“Also recorded” adds a separate entry of the source.

B1: BDNF: brain derived neurotrophic factor (protein, UniProt P23560 19-247, looked up)
Neurotrophic factor BDNF …: APMKEANIRGQGGLAYPGVRTHGTLESVNGPKAGSRGLTSLADTFEHVIEELLDEDQKVRPNEENNKDADLYTSRVMLSSQVPLEPPLLFLLEEYKNYLDAANMSMRVRRHSDPARRGELSVCDSISEWVTAADKKTAVDMSGGTVTVLEKVPVSKGQLKQYFYETKCNPMGYTKEGCRGIDKRHWNSQCRTTQSYVRALTMDSKKRIGWRFIRIDTSCVCTLTIKRGR

Key:
[1] = test system: embryonic cortical neurons; assay: Embryonic cortical neuron outgrowth visualised by Tau1/MAP2 staining (FIG. 3); format: cell-based, rat; conditions: for axonal outgrowth (Tau1/MAP2 staining): BDNF 2 ng/ml or hypoxanthine 100 μM, FIG. 3
Source text: FIG. 3 is a series of photographs of embryonic cortical neurons grown in the presence of the indicated factors (BDNF, hypoxanthine, BDNF+6-thioguanine, BDNF+6-thioguanine+hypoxanthine), which have then been stained with either antibodies to Taul, antibodies to MAP2, or both antibodies to Taul and antibodies to MAP2, in order to visualize neuronal outgrowth.
(§1) These experiments were done on embryonic cortical neurons. The forebrains of […] rat pups were dissected and plated in media containing serum. After 3 hours the medium was exchanged for Medium E (Irwin et al. 2006) (Proc Nati Acad Sci U S A. 2006 Nov 28;103(48):18320-5). The cells were treated the following day with inosine or hypoxanthine, in the presence and absence of the indicated amount of the inhibitor 6-thioguanine (6-TG), and allowed to grow for 3 days. The 6-TG was added 1 hour before the hypoxanthine or inosine. Following the three days of growth, the cells were fixed and stained with Taul antibody and a fluorescent secondary antibody. Axons were then counted. […] FIG. 1 presents the data obtained.
Embryonic cortical neurons were grown in the presence of BDNF (2 ng/ml), hypoxanthine (100 μM), BDNF (2 ng/ml)+6-thioguanine (20 μM) , or BDNF (2 ng/ml)+6-thioguanine (20 μM)+hypoxanthine (100 μM), as described above. The cells were then fixed and stained with either antibodies to Taul, antibodies to map2, or both antibodies to Taul and antibodies to map2, and corresponding fluorescent secondary antibodies, in order to visualize axonal outgrowth.

[2] = test system: embryonic cortical neurons; assay: Embryonic cortical neuron axon outgrowth, competition with 6-thioguanine (FIG. 1); format: cell-based, rat; conditions: 6-TG 0-80 μM added 1 hour before hypoxanthine or inosine, 3 days growth
Experimental: FIG. 1 contains two separate sets of bar graphs and line graphs representative of data obtained from embryonic cortical neuron competition experiments.
as §1

Mst3b = Mst3b (Homo sapiens, UniProt Q9Y6E0); conditions: data not shown
[3] = test system: embryonic cortical neurons; assay: Embryonic cortical neuron axonal outgrowth with or without BCX-34 (FIG. 2); format: cell-based, rat; conditions: inosine or hypoxanthine 100 μM, BDNF 2 ng/ml
Experimental: as §1
In a similar experiment, embryonic cortical neurons were given brain derived neurotrophic factor (BDNF) (2 ng/ml), inosine, or hypoxanthine (100 μM). […] The cells were then scored for neuron axonal outgrowth. The data collected is represented in FIG. 2.

Mst3b, sequence (Q9Y6E0 whole entry): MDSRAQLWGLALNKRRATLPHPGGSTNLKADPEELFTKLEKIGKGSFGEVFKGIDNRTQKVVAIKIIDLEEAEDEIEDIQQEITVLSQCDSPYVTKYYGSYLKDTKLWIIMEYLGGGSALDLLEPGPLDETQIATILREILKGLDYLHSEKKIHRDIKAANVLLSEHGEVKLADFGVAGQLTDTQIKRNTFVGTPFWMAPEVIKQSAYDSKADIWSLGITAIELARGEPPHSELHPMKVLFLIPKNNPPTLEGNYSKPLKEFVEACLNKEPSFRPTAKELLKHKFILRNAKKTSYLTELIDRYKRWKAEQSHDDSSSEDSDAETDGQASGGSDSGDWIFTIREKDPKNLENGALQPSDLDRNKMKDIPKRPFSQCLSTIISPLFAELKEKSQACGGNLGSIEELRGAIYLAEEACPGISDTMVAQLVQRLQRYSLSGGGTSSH

| activation of Mst3b (Mst3b) | Molecule | inhibition of BDNF stimulated outgrowth ([1]; BDNF 2 ng/ml + 6-thioguanine 20 μM) | inhibition by 6-thioguanine of inosine- and hypoxanthine-induced axon outgrowth [2] | inhibition by 6-thioguanine of inosine- and hypoxanthine-induced axon outgrowth ([2]; listed as 6-thioguanine) | reversal of 6-TG inhibition of BDNF stimulated outgrowth ([1]; BDNF 2 ng/ml + 6-thioguanine 20 μM + hypoxanthine 100 μM) | axonal outgrowth (Tau1/MAP2 staining) [1] | induction of axonal outgrowth [3] |
| --- | --- | --- | --- | --- | --- | --- | --- |
| – | Nc1nc2nc[nH]c2c(=S)[nH]1 [6-TG, 6-thioguanine, reference compound] | can be inhibited | competitively inhibited the actions of both inosine and hypoxanthine | competitively inhibits the actions of both inosine and hypoxanthine | – | – | – |
| activates Mst3b | O=c1[nH]cnc2nc[nH]c12 [hypoxanthine] | – | similarly inhibited by 6-TG | – | inhibition can be overcome; also recorded: inhibition was overcome | cause outgrowth; also recorded: caused axonal outgrowth | induced axonal outgrowth similarly to BDNF |
| – | OC[C@H]1O[C@@H](n2cnc3c(O)ncnc32)[C@H](O)[C@@H]1O [inosine, reference compound] | – | similarly inhibited by 6-TG | – | – | – | induced axonal outgrowth similarly to BDNF |
| – | B1 | – | – | – | – | cause outgrowth; also recorded: caused axonal outgrowth | – |
